From ChEMBL document CHEMBL3217678 (Medchemcomm, 2011)
pIC50: −log10 of the molar value. Calls of active or inactive are those of the source. The calls are words filed in the database; no cut-off is given here.

Legend:
[1] = target: T1, 26S proteasome (Homo sapiens) (UniProt Q99460+P49721+P20618+P28074+P28062+P28065+P28072+O00487+P25786+P25787+P25788+P25789+P28066+P60900+O14818+Q8TAA3+P40306+A5LHX3+P49720+P28070+Q99436+Q16186+P35998+P62191+P43686+P62333+P17980+P62195+Q13200+O43242+O00232+O00231+Q15008+P51665+Q9UNM6+P55036+P48556+P60896); conditions: HeLa, 26 nM
Description: Inhibition of 20S proteasome in human HeLa cells expressing GFP-tagged ubiquitin G76V mutant at 26 nM after 16 hrs by fluorescence assay

[2] = Half life in 100 fold molar excess of deuterated water in DMSO at 37 degC by [1H]-NMR analysis; format: physicochemical
[3] = target: T1, 26S proteasome (Homo sapiens); test: Inhibition of 20S proteasome in human HeLa cells expressing GFP-tagged ubiquitin G76V mutant at 23 uM after 16 hrs by fluorescence assay; format: cell-based
[4] = target: T1, 26S proteasome (Homo sapiens); test: Inhibition of human 20S proteasome using Suc-LLVY-AMC as substrate assessed as decrease in enzyme velocity; format: protein-complex assay
[5] = target: 26S proteasome; test: Inhibition of human 20S proteasome using Suc-LLVY-AMC as substrate preincubated for 30 mins followed by substrate addition measured after 90 mins by fluorescence assay; format: protein-complex assay

Compound | inhibition [1] | half-life [2] [h] | inhibition [3] | inhibition [4] | pIC50 [5]
CC(C)C[C@H](NC(=O)[C@H](Cc1ccccc1)NC(=O)c1cnccn1)B(O)O [BORTEZOMIB] | Active | – | – | – | –
COc1cccc(-c2nsc(=O)o2)c1 | – | 20 | – | – | –
CC(C)C[C@@H](NC(=O)[C@H](Cc1ccccc1)NC(=O)c1cnccn1)c1nsc(=O)o1 | – | – | inactive | Dose-dependent effect | 3.65
CC(C)C[C@H](NC(=O)[C@H](Cc1ccccc1)NC(=O)c1cnccn1)c1nsc(=O)o1 | – | 156 | Active | Dose-dependent effect | 3.97
